Laboratory results as given in patent publication US20250275976A1, “Methods of Treating Neuroinflammatory Conditions” (Athira Pharma, Inc., priority 2022, published 2025).
Like-named read-outs stand apart in the source and are kept apart here.

Legend:
[1] = test system: THP-1-differentiated macrophages; experiment: Pro-inflammatory cytokines in supernatants of LPS-challenged THP-1-differentiated macrophages; assay type: cell-based, human; parameters: key to Significant reduction in pro-inflammatory cytokine expression: IL-6 / Significant reduction in pro-inflammatory cytokine expression: TNF-α / Significant reduction in pro-inflammatory cytokine expression: IL-1β: “NS” indicates a non-significant reduction in the indicated cytokine; “+” indicates a p value <0.05 in Tukey post test; “++” indicates a p value <0.01 in Tukey post test; conditions: for Expression of IL-1β and TNF-α (result in words) / Expression of IL-6 (result in words): at at least one tested dose; for Significant reduction in pro-inflammatory cytokine expression: IL-1β / Significant reduction in pro-inflammatory cytokine expression: IL-6 / Significant reduction in pro-inflammatory cytokine expression: TNF-α: LPS 24 hrs
From the text: Neuroinflammation plays a crucial role in disease progression and is a complex phenomenon involving various cells that affect many extra- and intracellular signaling pathways and cytokine production. The macrophage of the brain (microglia) is the main agent of innate immunity in the CNS and performs various functions, including neuroprotection, in response to inflammatory signals. Activated microglia participate in developing neuroinflammation, responding to toxic exogenous substances (like LPS) or endogenous substances (like amyloid-beta). Here, THP-1 cells were used as an in-vitro cell model to evaluate mechanisms relevant to CNS inflammation. Differentiation with phorbol-12-myristate-13-acetate (PMA) causes THP-1 monocyte cells to acquire functional and morphological resemblance to macrophages. LPS interacts with THP-1 differentiated macrophage through the toll-like receptor 4, triggering the inflammatory response and stimulating pro-inflammatory cytokine release and eventually leading to cellular death. Test compounds were investigated for whether they have anti-inflammatory effects on LPS-challenged macrophage cultures. THP-1-differentiated macrophages were treated with test compounds for 20 minutes, followed by 24 hrs of LPS challenge. Culture supernatants were then collected to analyzed for the presence of pro-inflammatory cytokines: interleukin 1β (IL--1β), interleukin 6 (IL-6) and tumor necrosis factor α (TNF-α).
Cytokine quantification in cell culture supernatants was accomplished by homogeneous time resolved fluorescence (HTRF) kits to assess levels of IL-1β (Human IL-1β kit, #62HIL1BPEG, Cisbio) and IL-6 (Human IL-6 kit, 62HILO6PET, Cisbio), and by ELISA (Human TNF-α ELISA kit, KHC3011, ThermoFisher) to determine the levels of TNF-α.
Data analysis was performed via 1-way ANOVA with Tukey post-test compared to LPS treatment cultures using Prism statistical software (GraphPad). Tabular data indicates significance of reduction in culture supernatants for the indicated analyte at the indicated dose.

[2] = test system: Rat primary cortical neuron cultures; experiment: Neuroprotection of rat primary cortical neurons against neurotoxic insults (Cell Titer-Glo viability); assay type: cell-based
From the text: HGF/MET signaling activation is expected to protect cells, including neurons, from cell death. […] Hydrogen peroxide (H2O2) treatment produces toxic oxidative stress. Bacteria-derived lipopolysaccharide (LPS) treatment induces inflammatory cell death. Treatment with excess glutamate (Glut) produces excitotoxicity in neuron cultures. Treatment with 1-methyl-4-phenylpyridinium (MPP^+) causes cell death by inhibition of mitochondrial function.
Cells were then subjected to individual conditional insults for 24 hours at the following concentrations: H2O2 at 1 uM, LPS at 1 uM, glutamate at 25 uM, or MPP+ at 500 uM. All treatments contained recombinant human HGF (R&D Systems) at a concentration of 5 ng/ml. MK-801 (Dizocilpine) is a pore blocker of the N-Methyl-D-aspartate (NMDA) receptor, a glutamate receptor, and was used as a positive control.
Data was normalized to DMSO+HGF control set at 100% cell viability.
Data are reported as statistical significance vs. insult control, with NS=not significant, +=p<0.05, ++=p<0.01, and +++=p<0.001.

[3] = test system: Rat primary cortical neuron cultures; conditions: LPS 24 h
Procedure: (§1) To assess the neuroprotective effect of compound treatment against inflammatory insult, primary cultured cortical neurons were subjected to lipopolysaccharide (LPS) treatment for 24h along with various compound doses of compounds of Formula (I) or Compound A19. […] Rat primary cortical neuron cultures were grown at 37° C., 5% C02 in Complete Neurobasal Medium supplemented with B27/GDNF/BDNF containing 10% FBS until maturity. 25 μl of culture volume were seeded in a 384-well plate at 5,000 cells/well, and treated with 1 μM, 100 nM, 10 nM, 1 nM, or 0.1 nM of test compound for 15 minutes. Cells were then subjected to 1 μM LPS challenge for 24 hours. Luminescence measurements to assess relative levels of ATP were performed on an Envision plate reader (Perkin Elmer). Data for DMSO control were set to 100% cell viability, and each group (n=4) were averaged and presented as mean±SEM.

[4] = test system: Rat primary cortical neuron cultures; experiment: Neuroprotection of rat cortical neurons against LPS challenge (Cell Titer-Glo); conditions: at at least one dose tested
Procedure: as §1

SMILES: CCC(C)CN1CC2N(C(=O)c3ccc(C(F)(F)F)cc3)CCC(=O)N2[C@@H](C)C1=O (stereo partly drawn) [Compound 1a]
- Expression of IL-1β and TNF-α (result in words) [1]: significantly reduced
- Expression of IL-6 (result in words) [1]: significantly reduced
- Significant reduction in pro-inflammatory cytokine expression: IL-1β ([1]; dose 0.1 nM): ++ (“++” indicates a p value <0.01 in Tukey post test)
- Significant reduction in pro-inflammatory cytokine expression: IL-6 ([1]; dose 0.1 nM): NS
- Significant reduction in pro-inflammatory cytokine expression: TNF-α ([1]; dose 0.1 nM): ++ (“++” indicates a p value <0.01 in Tukey post test)
- Significant reduction in pro-inflammatory cytokine expression: IL-1β ([1]; dose 10 nM): ++ (“++” indicates a p value <0.01 in Tukey post test)
- Significant reduction in pro-inflammatory cytokine expression: IL-6 ([1]; dose 10 nM): ++ (“++” indicates a p value <0.01 in Tukey post test)
- Significant reduction in pro-inflammatory cytokine expression: TNF-α ([1]; dose 10 nM): ++ (“++” indicates a p value <0.01 in Tukey post test)
- Significant reduction in pro-inflammatory cytokine expression: IL-1β ([1]; dose 1000 nM): ++ (“++” indicates a p value <0.01 in Tukey post test)
- Significant reduction in pro-inflammatory cytokine expression: IL-6 ([1]; dose 1000 nM): + (“+” indicates a p value <0.05 in Tukey post test)
- Significant reduction in pro-inflammatory cytokine expression: TNF-α ([1]; dose 1000 nM): ++ (“++” indicates a p value <0.01 in Tukey post test)
- Statistical significance vs. insult control (cell viability) ([2]; Glutamate (25 uM) insult, [Compound 1a] 0.1 nM + HGF (5 ng/ml)): +++ (+++=p<0.001)
- Statistical significance vs. insult control (cell viability) ([2]; Glutamate (25 uM) insult, [Compound 1a] 1 nM + HGF (5 ng/ml)): +++ (+++=p<0.001)
- Statistical significance vs. insult control (cell viability) ([2]; Glutamate (25 uM) insult, [Compound 1a] 100 nM (second column headed 100 nM) + HGF (5 ng/ml)): +++ (+++=p<0.001)
- Statistical significance vs. insult control (cell viability) ([2]; Glutamate (25 uM) insult, [Compound 1a] 100 nM + HGF (5 ng/ml)): +++ (+++=p<0.001)
- Statistical significance vs. insult control (cell viability) ([2]; Glutamate (25 uM) insult, [Compound 1a] 1 uM + HGF (5 ng/ml)): +++ (+++=p<0.001)
- Statistical significance vs. insult control (cell viability) ([2]; H2O2 (1 uM) insult, [Compound 1a] 0.1 nM + HGF (5 ng/ml)): +++ (+++=p<0.001)
- Statistical significance vs. insult control (cell viability) ([2]; H2O2 (1 uM) insult, [Compound 1a] 1 nM + HGF (5 ng/ml)): +++ (+++=p<0.001)
- Statistical significance vs. insult control (cell viability) ([2]; H2O2 (1 uM) insult, [Compound 1a] 100 nM (second column headed 100 nM) + HGF (5 ng/ml)): +++ (+++=p<0.001)
- Statistical significance vs. insult control (cell viability) ([2]; H2O2 (1 uM) insult, [Compound 1a] 100 nM + HGF (5 ng/ml)): +++ (+++=p<0.001)
- Statistical significance vs. insult control (cell viability) ([2]; H2O2 (1 uM) insult, [Compound 1a] 1 uM + HGF (5 ng/ml)): +++ (+++=p<0.001)
- Neuroprotection against the cohort of insults (result in words) ([2]; H2O2, glutamate, LPS, MPP+, broad range of concentrations): effective neuroprotective treatment at a broad range of concentrations against the entire cohort of insults tested
- Statistical significance vs. insult control (cell viability) ([2]; LPS (1 uM) insult, [Compound 1a] 0.1 nM + HGF (5 ng/ml)): +++ (+++=p<0.001)
- Statistical significance vs. insult control (cell viability) ([2]; LPS (1 uM) insult, [Compound 1a] 100 nM (second column headed 100 nM) + HGF (5 ng/ml)): +++ (+++=p<0.001)
- Statistical significance vs. insult control (cell viability) ([2]; LPS (1 uM) insult, [Compound 1a] 100 nM + HGF (5 ng/ml)): +++ (+++=p<0.001)
- Statistical significance vs. insult control (cell viability) ([2]; LPS (1 uM) insult, [Compound 1a] 1 uM + HGF (5 ng/ml)): +++ (+++=p<0.001)
- Statistical significance vs. insult control (cell viability) ([2]; MPP+ (500 uM) insult, [Compound 1a] 0.1 nM + HGF (5 ng/ml)): +++ (+++=p<0.001)
- Statistical significance vs. insult control (cell viability) ([2]; MPP+ (500 uM) insult, [Compound 1a] 1 nM + HGF (5 ng/ml)): +++ (+++=p<0.001)
- Statistical significance vs. insult control (cell viability) ([2]; MPP+ (500 uM) insult, [Compound 1a] 100 nM (second column headed 100 nM) + HGF (5 ng/ml)): +++ (+++=p<0.001)
- Statistical significance vs. insult control (cell viability) ([2]; MPP+ (500 uM) insult, [Compound 1a] 100 nM + HGF (5 ng/ml)): +++ (+++=p<0.001)
- Statistical significance vs. insult control (cell viability) ([2]; MPP+ (500 uM) insult, [Compound 1a] 1 uM + HGF (5 ng/ml)): +++ (+++=p<0.001)
- Significance of neuroprotection vs 1 uM LPS ([3]; dose 0.1 nM): +++ (+++ indicates p<0.001)
- Significance of neuroprotection vs 1 uM LPS ([3]; dose 1 nM): +++ (+++ indicates p<0.001)
- Significance of neuroprotection vs 1 uM LPS ([3]; dose 10 nM): +++ (+++ indicates p<0.001)
- Significance of neuroprotection vs 1 uM LPS ([3]; dose 100 nM): +++ (+++ indicates p<0.001)
- Significance of neuroprotection vs 1 uM LPS ([3]; dose 1 μM): +++ (+++ indicates p<0.001)
- Protection of primary neurons from LPS-stimulated inflammatory toxicity (in words) [4]: protected primary neurons from LPS-stimulated inflammatory toxicity

SMILES: CCC(C)CN1CC2N(Cc3ccc(C(F)(F)F)cc3)CCC(=O)N2[C@@H](C)C1=O (stereo partly drawn) [Compound 5a]
- Expression of IL-1β and TNF-α (result in words) [1]: significantly reduced
- Expression of IL-6 (result in words) [1]: significantly reduced
- Significant reduction in pro-inflammatory cytokine expression: IL-1β ([1]; dose 0.1 nM): ++ (“++” indicates a p value <0.01 in Tukey post test)
- Significant reduction in pro-inflammatory cytokine expression: IL-6 ([1]; dose 0.1 nM): NS
- Significant reduction in pro-inflammatory cytokine expression: TNF-α ([1]; dose 0.1 nM): NS
- Significant reduction in pro-inflammatory cytokine expression: IL-1β ([1]; dose 10 nM): ++ (“++” indicates a p value <0.01 in Tukey post test)
- Significant reduction in pro-inflammatory cytokine expression: IL-6 ([1]; dose 10 nM): + (“+” indicates a p value <0.05 in Tukey post test)
- Significant reduction in pro-inflammatory cytokine expression: TNF-α ([1]; dose 10 nM): NS
- Significant reduction in pro-inflammatory cytokine expression: IL-1β ([1]; dose 1000 nM): ++ (“++” indicates a p value <0.01 in Tukey post test)
- Significant reduction in pro-inflammatory cytokine expression: IL-6 ([1]; dose 1000 nM): ++ (“++” indicates a p value <0.01 in Tukey post test)
- Significant reduction in pro-inflammatory cytokine expression: TNF-α ([1]; dose 1000 nM): + (“+” indicates a p value <0.05 in Tukey post test)
- Significance of neuroprotection vs 1 uM LPS ([3]; dose 0.1 nM): +++ (+++ indicates p<0.001)
- Significance of neuroprotection vs 1 uM LPS ([3]; dose 1 nM): +++ (+++ indicates p<0.001)
- Significance of neuroprotection vs 1 uM LPS ([3]; dose 10 nM): +++ (+++ indicates p<0.001)
- Significance of neuroprotection vs 1 uM LPS ([3]; dose 100 nM): +++ (+++ indicates p<0.001)
- Significance of neuroprotection vs 1 uM LPS ([3]; dose 1 μM): +++ (+++ indicates p<0.001)
- Protection of primary neurons from LPS-stimulated inflammatory toxicity (in words) [4]: protected primary neurons from LPS-stimulated inflammatory toxicity
